{
  "source": "patent US20160243022A1",
  "about": "“Use of Fermented Milk Product for Skin Treatment” (GIVAUDAN S.A., priority 2006, published 2016)",
  "tested_on": "normal human dermal fibroblasts (NHDF)",
  "test": "[3H] proline incorporation into intracellular and ECM layer proteins (collagen synthesis)",
  "type": "cell-based",
  "conditions": "20 micro g/ml",
  "procedure": "Normal human dermal fibroblasts (NHDF) were cultured in-vitro with radio labelled [^3H] proline. Collagen is a proline-rich protein. The level of radio labelled proline found in proteins, following culturing of the NHDF, is a measure of the rate of collagen synthesis. Yogurtene™ can be added to the cell culture to measure the effect of Yogurtene™ on the rate of proline uptake (collagen synthesis).\nThe study investigated the increase in radio labelled proline found in: (i) soluble/secreted proteins, and (ii) intracellular and extra-cellular matrix (ECM) proteins.\nBeta-Transforming Growth Factor (β-TGF) and ascorbic acid are known collagen synthesis promoters and were used as controls in both studies.",
  "data": [
    {"smiles": "O=C1O[C@H]([C@@H](O)CO)C(O)=C1O", "note": "[Ascorbic acid]", "values": [
      {"measurement": "Proline incorporation into intracellular & ECM layer proteins", "value": 12764, "unit": "Count/min"}
    ]}
  ]
}
